We go through one compound from patent US20220304958A1, “SMALL MOLECULE INHIBITORS OF A PROTEIN COMPLEX” (THE REGENTS OF THE UNIVERSITY OF CALIFORNIA, priority 2019, published 2022).

Molecules are shown by their SMILES.

One data set has as its system PARD3 binding to HEG1. In words: PARD3 pulldown assay with HEG1 matrix. Details: species or system human (HUVEC lysates). The following applies: 35 μM compound, HUVEC lysates, HEG1 WT matrix. The procedure: PARD3 pulldown assay. Neutravidin agarose beads (Thermo Fisher) matrix with wild-type HEG1 cytoplasmic tail (1274-1381) and ΔYF (1274-1379) were previously described (5, 26). HUVEC were collected in cold lysis buffer (50 mM Tris-HCl, pH 7.4, 100 mM NaCl, 5 mM MgCl2, 0.5% NP-40) plus protease inhibitor cocktail (Roche). A total of 20 μl of HEG1 matrix was added to 600 μg of clarified lysates and incubated at 4° C. overnight while rotating. All conditions contained either vehicle DMSO, 35 μM HKi2 or 35 μM 2-hydroxy-1-naphthoic acid. After three washes with cold lysis buffer, beads were mixed with sample buffer and proteins were separated by SDS-PAGE. Bound PARD3 was detected by using polyclonal Rabbit anti-PARD3 (Millipore, 07-330) antibody.

The subject of the next data set is PI3K/Akt signaling. In words: PI3K/Akt signaling in hCMEC/D3 cells by Western blot. The settings on record: hCMEC/D3, 50 μM, 1 h. It counts as cell-based, human. As to the method:
Cell culture. hCMEC/D3 cells at passages 30-37 were grown to confluence on collagen-coated plates and cultured using in EGM-2 MV medium and supplemented with complements obtained from the manufacturer (Lonza) as previously reported (31). HUVEC (Lonza) at passages 4-7 were grown to confluence on gelatin-coated plates and maintained using complete EGM-2 media (Lonza). HKi2, 10 mM in DMSO, was maintained at room temperature for 30 min rotating before use. Cells were then treated with HKi2 at the concentrations and times indicated for each experiment. Vehicle cells were treated with the same volume of DMSO as used with HKi2. Cells were maintained at 37° C. in 95% air and 5% CO2. Western blotting and immunoprecipitation. […] Cell lysates were spun at 20,000×g for 15 minutes at 4° C. The PI3 Kinase was immunoprecipitated using the mouse monoclonal antibody as described in the manufacturer instructions and supernatants were stored at -80° C. Samples were resolved on 4-12% gradient gel and blotted using specific antibodies, as indicated. Band intensity was determined using a Li-Cor system and values obtained for phosphoproteins were normalized to the total protein in the same sample. Antibodies to phospho-Akt-Ser473 (clone: 193H12; rabbit mAb; #4058; 1:250), Akt (clone: 40D4; mouse mAb; #2920; 1:500), phospho-PI3 Kinase p85 […] (rabbit polyclonal; #4228; 1:500) were from Cell Signaling. […]
Background: A western blot detects proteins with antibodies after separation by electrophoresis.

Data set [1] has as its system KLF4 and KLF2 mRNA. Nature of the data set: KLF4 and KLF2 mRNA expression in hCMEC/D3 cells by qPCR. Format: cell-based, human. As to the method: (§1) Cell culture. hCMEC/D3 cells at passages 30-37 were grown to confluence on collagen-coated plates and cultured using in EGM-2 MV medium and supplemented with complements obtained from the manufacturer (Lonza) as previously reported (31). HUVEC (Lonza) at passages 4-7 were grown to confluence on gelatin-coated plates and maintained using complete EGM-2 media (Lonza). HKi2, 10 mM in DMSO, was maintained at room temperature for 30 min rotating before use. Cells were then treated with HKi2 at the concentrations and times indicated for each experiment. Vehicle cells were treated with the same volume of DMSO as used with HKi2. Cells were maintained at 37° C. in 95% air and 5% CO2. RNA extraction and qRT-PCR. HUVECs total RNA were isolated using MagMAXTM-96 for Microarrays Total RNA Isolation Kit, according to the manufacturer's protocol (Thermo Fisher Scientific Cat #AM1839). qPCR analysis, single-stranded cDNA was produced from 10 ng RNA isolated from HUVECs using PrimeScriptTM RT Master Mix according to the manufacturer's protocol (Takara Cat. #R[…]). The levels of genes were analyzed using iTaqTM Universal SYBR Green (BioRad Cat #1725122) and thermal cycler (CFX96 Real-Time System; Bio-Rad) according to the manufacturer's protocol. Actin mRNA levels was used as internal control, and the 2^-ΔΔCT method was used for data analysis.
For orientation: In qPCR the cycle at which signal appears reflects the starting amount.

Data set [2] deals with KLF4 and KLF2 mRNA. In words: KLF4 and KLF2 mRNA expression in HUVEC by qPCR. It counts as cell-based, human. The settings on record: dose response, 24 hours. As to the method:
as §1

A further data set relates to HUVEC. Nature of the data set: Genome-wide RNA sequencing of HUVEC. Format: cell-based, human. The following applies: 75 μM. As to the method: Cell culture. hCMEC/D3 cells at passages 30-37 were grown to confluence on collagen-coated plates and cultured using in EGM-2 MV medium and supplemented with complements obtained from the manufacturer (Lonza) as previously reported (31). HUVEC (Lonza) at passages 4-7 were grown to confluence on gelatin-coated plates and maintained using complete EGM-2 media (Lonza). HKi2, 10 mM in DMSO, was maintained at room temperature for 30 min rotating before use. Cells were then treated with HKi2 at the concentrations and times indicated for each experiment. Vehicle cells were treated with the same volume of DMSO as used with HKi2. Cells were maintained at 37° C. in 95% air and 5% CO2. Genome-wide RNA sequencing. The quantity (ND-1000 spectrophotometer; NanoDrop Technologies) and quality (Bioanalyzer; Agilent) of total RNA were analyzed. Only RNA with a RNA integrity number (RIN) greater than 8 RNA was used for library preparation. Libraries were generated using Illumina's TruSeq Stranded mRNA Sample Prep kit using 400 ng RNA. RNA libraries were multiplexed and sequenced with 100-bp […] single-end reads (SR100) to a depth of 30 million reads per sample on an Illumina HiSeq2500. Fastq files from RNA-seq experiments were mapped to the human genome (GRCh primary assembly release 96) using Hisat2 with default parameters. All bioinformatics analyses were conducted in R using the […] package RNAseq workflows. Differential gene expression analysis was conducted with EdgeR.

The subject of a further data set is klf2a. Nature of the data set: klf2a reporter Tg(klf2a:H2B-EGFP) zebrafish embryos. It counts as in vivo. The settings on record: 4 μM, 4 h, added at 26 hpf, imaged at 30 hpf. From the text: Zebrafish. A previously reported transgenic zebrafish line Tg(klf2a:H2B-EGFP) was used to monitor the expression of klf2a (32, 33). […] At 30 hpf, these treated embryos were scanned for EGFP expression by Zeiss LSM 880 Airiscan.

Data set [3] in a line: Aqueous solubility in assay buffer. Format: physicochemical. The following applies: qualitative, compared with HKi1.

With `O=Cc1c(O)ccc2ccccc12` [2-hydroxy-1-naphtaldehyde (Hki2), 2-hydroxy-1-naphthaldehyde], in the data set on PARD3 binding to HEG1, the “PARD3 binding to HEG1” value is “no effects”. The “increase in Akt activation (pAkt-S473)” value in the data set on PI3K/Akt signaling (Western blot) came to 2.2 fold. In the data set with PI3K/Akt signaling (phospho-p85), the “increase in PI3K activity” value was 2 fold. Besides, in the data set with KLF4 and KLF2 mRNA [1] (hCMEC/D3, 25 μM, 12 h), the “KLF4 and KLF2 mRNA levels” value was “upregulated”. Further, in the data set with KLF4 and KLF2 mRNA [1] (hCMEC/D3, 50 μM, 4 h), the “KLF2 upregulation, fold increase” value is roughly 1.5 fold and the “KLF4 upregulation, fold increase” value is roughly 3.5 fold. In the data set on KLF4 and KLF2 mRNA [1] (hCMEC/D3, 50 μM, 12 h), the “KLF2 mRNA levels, fold increase” value is roughly 2.3 fold and the “KLF4 mRNA levels, fold increase” value is recorded as roughly 6.5 fold. Moreover, the “KLF4 levels, fold increase” value in the data set with KLF4 and KLF2 mRNA [1] (hCMEC/D3, 50 μM, 24 h) is reported as roughly 6 fold. The “KLF4 and KLF2 mRNA levels” value in the data set with KLF4 and KLF2 mRNA [2] is “upregulated”. For the same compound, the VEGFA gene expression result in the data set with HUVEC (24 h, RNA-seq) was “upregulation”. The “genes differentially expressed between treatment and vehicle control” value in the data set with HUVEC (24 h, corrected P<0.05, ≥2.5-fold change) was determined as 457 genes. Also, in the data set with HUVEC (RNA-Seq, n=3), the “CCL2 (Monocyte chemoattractant protein) expression, ratio experimental/control FPKM” value was −7.95; the “CXCR4 (C-X-C chemokine receptor type 4) expression, ratio experimental/control FPKM” value is −4.41; the “KLF2 expression, ratio experimental/control FPKM” value was 3.07; the “KLF4 expression, ratio experimental/control FPKM” value was found to be 3.89. For the same compound, in the data set on HUVEC (RNA-Seq, n=3), the “THBD (Thrombomodulin) expression, ratio experimental/control FPKM” value is listed as 8.34 and the “THBSI (Thrombospondin 1) expression, ratio experimental/control FPKM” value is reported as −5.78. Also, the “nuclear EGFP (klf2a reporter) in arterial and venous endothelium” value with klf2a is “increase”. Further, the “solubility in aqueous solution” value in data set [3] is “largely improved”.
